The text below walks through data of ChEMBL document CHEMBL1128881, “The in vitro effects of three lysosomotropic detergents against three human tumor cell lines” (Bioorg Med Chem Lett, 1995).

A short description of data set [1]: Dissociation constant was measured in water. In kind it is physicochemical.
Data set [2] is described as follows: Tested for inhibition of DNA synthesis at a dose range of 1.9-2.4 ug/ml after 30 min; range of 8-10 uM. It is filed as functional.

The term pKa denotes the pH at which an ionisable group is half protonated. Regarding `CCCCCCCCCCCCNC(=O)[C@@H](N)CO`, the pKa in data set [1] (water, read-out: pKa) was 7.5.
Broadly, the IC50 is the point on the concentration scale where inhibition reaches its midpoint. High values mean weaker potency in that assay, low ones greater potency in that assay. For `CCCCCCCCCCCCNC(=O)[C@@H](N)COC`, the pKa in data set [1] is 5.9. This compound also registered an IC50 in data set [2] of 10 µM.
In turn, `CCCCCCCCCCCCn1ccnc1` [listing 1 of 2 here] yielded a pKa in data set [1] (buffer) of 7.5.
With `CCCCCCCCCCCCn1ccnc1` [listing 2 of 2 here], in data set [1] (water, read-out: pKa), the pKa turned out to be 6.3.
Consider `CCCCCCCCCCCCNC(=O)[C@@H](N)CO.Cl`, for which, in data set [1] (buffer), the pKa was found to be 5.8.
`Cn1ccnc1` [1-METHYLIMIDAZOLE]: the pKa in data set [1] (water, read-out: pKa) came to 7.
